Measurements taken from US20240270821A1, “GIP/GLP1/GCG TRI-RECEPTOR AGONISTS AND USES THEREOF” (priority 2023, published 2024).
Where two headings read alike, the source gives them in different places. Starred links: 1 amine or outer side, 2 acyl side, 3 side chain; linkers in the order of their positions; H or OH if unused. Non-standard residues stand in square brackets, D forms with d. Groups on a side chain read outwards from the residue. No end group written: not given here. *: point of attachment. C20 diacid = O=C(O)CCCCCCCCCCCCCCCCCCC(=O)*; C18 diacid = O=C(O)CCCCCCCCCCCCCCCCC(=O)*; αMePhe(2-F) = C[C@](N)(Cc1ccccc1F)C(=O)O; γGlu = O=C(O)[C@H](CCC(=O)[*:2])N[*:1]; αMe4Pal = C[C@](N)(Cc1ccncc1)C(=O)O; αMeY = C[C@](N)(Cc1ccc(O)cc1)C(=O)O; 4Pal = N[C@@H](Cc1ccncc1)C(=O)O; Aad = N[C@@H](CCCC(=O)O)C(=O)O; αMeL = CC(C)C[C@](C)(N)C(=O)O; Orn = NCCC[C@H](N)C(=O)O; AEEA = NCCOCCOCC(=O)O; Aib = CC(C)(N)C(=O)O

Columns and labels:
Assay type in all cases: cell-based
[1] = target: human GcgR (Homo sapiens, UniProt P47871); assay: Functional cAMP activity in the presence of 1% HSA; conditions: read-out: cAMP Rel EC50, hGcgR
Chain of human GcgR (P47871 26-477): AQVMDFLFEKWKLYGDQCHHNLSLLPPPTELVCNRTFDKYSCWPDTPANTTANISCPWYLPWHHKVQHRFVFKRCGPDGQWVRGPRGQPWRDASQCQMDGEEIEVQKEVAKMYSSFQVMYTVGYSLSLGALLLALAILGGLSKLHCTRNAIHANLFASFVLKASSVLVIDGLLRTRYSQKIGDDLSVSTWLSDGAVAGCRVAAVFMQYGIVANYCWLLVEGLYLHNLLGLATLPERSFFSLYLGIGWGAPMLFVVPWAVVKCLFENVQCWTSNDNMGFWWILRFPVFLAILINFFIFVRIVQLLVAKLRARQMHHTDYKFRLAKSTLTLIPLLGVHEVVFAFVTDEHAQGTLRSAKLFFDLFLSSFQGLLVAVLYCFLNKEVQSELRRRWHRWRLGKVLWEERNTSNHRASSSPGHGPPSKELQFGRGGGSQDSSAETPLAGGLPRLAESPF

[2] = target: hGcgR (Homo sapiens, UniProt P47871); assay: Functional cAMP activation in the presence of 0.1% casein (no HSA); conditions: read-out: Relative cAMP EC50, hGcgR;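 note: intracellular cAMP rise after 30 min at 37 °C, read by HTRF against a cAMP standard curve, scaled from buffer only (0%) to maximal control ligand response (100%)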
Chain of hGcgR (P47871 26-477): as above

[3] = target: T1, hGLP-1R (Homo sapiens, UniProt P43220); assay: as above; conditions: read-out: Relative cAMP EC50, hGLP-1R;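 note: intracellular cAMP rise after 30 min at 37 °C read by HTRF, normalized between buffer only (0%) and maximal control ligand (100%), four-parameter variable-slope fit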
T1 sequence (P43220 24-463): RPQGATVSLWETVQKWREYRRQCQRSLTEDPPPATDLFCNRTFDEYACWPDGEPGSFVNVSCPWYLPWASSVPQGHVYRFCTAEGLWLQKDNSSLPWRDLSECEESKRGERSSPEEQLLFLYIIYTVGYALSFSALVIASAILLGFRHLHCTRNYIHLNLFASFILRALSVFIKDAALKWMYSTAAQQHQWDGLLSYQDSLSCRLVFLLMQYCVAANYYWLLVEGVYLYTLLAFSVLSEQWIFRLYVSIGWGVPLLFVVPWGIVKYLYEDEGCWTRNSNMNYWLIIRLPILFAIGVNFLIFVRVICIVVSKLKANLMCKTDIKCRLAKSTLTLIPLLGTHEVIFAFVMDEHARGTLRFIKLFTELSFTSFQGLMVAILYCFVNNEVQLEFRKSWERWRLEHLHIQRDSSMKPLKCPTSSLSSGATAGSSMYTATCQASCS

[4] = target: T2, hGIPR (Homo sapiens, UniProt P48546); assay: Functional cAMP activity in the presence of 1% HSA; conditions: read-out: cAMP Rel EC50, hGIPR
T2 sequence (P48546 22-466): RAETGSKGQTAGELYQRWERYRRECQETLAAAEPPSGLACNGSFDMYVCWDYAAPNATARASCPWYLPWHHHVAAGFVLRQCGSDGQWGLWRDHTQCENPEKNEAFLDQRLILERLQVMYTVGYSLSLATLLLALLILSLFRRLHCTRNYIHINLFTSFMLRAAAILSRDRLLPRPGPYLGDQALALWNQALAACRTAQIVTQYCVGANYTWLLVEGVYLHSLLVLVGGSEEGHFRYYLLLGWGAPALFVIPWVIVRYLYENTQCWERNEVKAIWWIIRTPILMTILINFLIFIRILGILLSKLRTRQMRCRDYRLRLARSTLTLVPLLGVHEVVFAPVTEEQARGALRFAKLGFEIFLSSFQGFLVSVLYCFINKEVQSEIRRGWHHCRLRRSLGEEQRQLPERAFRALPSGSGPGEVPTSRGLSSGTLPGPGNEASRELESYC

[5] = target: T2, hGIPR; assay: Functional cAMP activation in the presence of 0.1% casein (no HSA); conditions: read-out: Relative cAMP EC50, hGIPR;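 for Relative cAMP EC50, hGIPR: intracellular cAMP rise after 30 min at 37 °C read by HTRF against a standard curve, scaled between buffer alone (0%) and top control ligand concentration (100%), four-parameter fit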;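 for Relative cAMP EC50, hGLP-1R: intracellular cAMP rise after 30 min at 37 °C read by HTRF, normalized between buffer only (0%) and maximal control ligand (100%), four-parameter variable-slope fit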
[6] = target: T1, hGLP-1R; assay: Functional cAMP activity in the presence of 1% HSA; conditions: read-out: cAMP Rel EC50, hGLP-1R
[7] = in the presence of 0.1% casein (no HSA), geometric mean

Y[Aib]QGT[αMePhe(2-F)]TSDYSILLDKK([γGlu-γGlu-C18 diacid])AQ[Aib]AFIEYLEEGGPSSGAPPPSGE-NH2 [Example 435]
EC50 [1]: 334 nM | EC50 [2]: 3.01 nM | EC50 [3]: 0.311 nM | EC50 [4]: 10.3 nM | EC50 [5]: 0.0239 nM | EC50 [6]: 33.6 nM

Y[Aib]QGT[αMePhe(2-F)]TSDYSILLDKQAAK([AEEA-γGlu-C20 diacid])EFIEYLIEGGPSSGAPPPSEG-NH2 [Example 340]
EC50 [1]: 647 nM | EC50 [2, 7]: 2.02 nM | EC50 [3, 7]: 0.648 nM | EC50 [4]: 60.4 nM | EC50 [5, 7]: 0.189 nM | EC50 [6]: 246 nM

Y[Aib]QGT[αMePhe(2-F)]TSDYSKILDKIAQK([AEEA-γGlu-C20 diacid])AFIQYLIEGGPSSGEPPPSEG-NH2 [Example 354]
EC50 [1]: 1440 nM | EC50 [2, 7]: 7.91 nM | EC50 [3, 7]: 1.21 nM | EC50 [4]: 23.8 nM | EC50 [5, 7]: 0.134 nM | EC50 [6]: 175 nM

Y[Aib]QGT[αMePhe(2-F)]TSDYSKLLDKIAQK([AEEA-γGlu-C20 diacid])AFIQYLIEGGPSSGEPPPSEG-NH2 [Example 338]
EC50 [1]: 659 nM | EC50 [2, 7]: 4.02 nM | EC50 [3, 7]: 1.22 nM | EC50 [4]: 10.9 nM | EC50 [5, 7]: 0.0733 nM | EC50 [6]: 172 nM

Y[Aib]QGT[αMePhe(2-F)]TSD[4Pal]SILLDKK([γGlu-γGlu-C18 diacid])AQ[Aib]AFIEWLQEGGPSSGAPPPSGTEE-NH2 [Example 578]
EC50 [1]: 781 nM | EC50 [2]: 6.26 nM | EC50 [3]: 0.233 nM | EC50 [4]: 3.73 nM | EC50 [5]: 0.0208 nM | EC50 [6]: 54.7 nM

Y[Aib]QGT[αMePhe(2-F)]TSD[4Pal]SILLDKK([γGlu-γGlu-C18 diacid])AQ[Aib]AFIEYLQEGGPSSGAPPPSGTEE-NH2 [Example 580]
EC50 [1]: 922 nM | EC50 [2]: 7.27 nM | EC50 [3]: 0.615 nM | EC50 [4]: 6.29 nM | EC50 [5]: 0.0426 nM | EC50 [6]: 55.3 nM

Y[Aib]QGT[αMePhe(2-F)]TSD[4Pal]SILLDKK([γGlu-γGlu-C18 diacid])AQ[Aib]AFIEYL[Aad]EGGPSSGAPPPSGTGE-NH2 [Example 661]
EC50 [1]: 160 nM | EC50 [2]: 1.78 nM | EC50 [3]: 1.13 nM | EC50 [4]: 4.62 nM | EC50 [5]: 0.0665 nM | EC50 [6]: 50.9 nM

Y[Aib]QGT[αMePhe(2-F)]TSD[4Pal]SI[αMeL]LD[Orn]K([AEEA-AEEA-γGlu-C18 diacid])AQ[αMe4Pal]EFI[dE][αMeY]LLEGGPSSGAPPPSGE-NH2 [Example 613]
EC50 [1]: 1410 nM | EC50 [2]: 20.4 nM | EC50 [3]: 0.698 nM | EC50 [4]: 0.791 nM | EC50 [5]: 0.00925 nM | EC50 [6]: 81.6 nM

Y[Aib]QGT[αMePhe(2-F)]TSD[4Pal]SI[αMeL]LD[Orn]K([AEEA-γGlu-C18 diacid])AQ[αMe4Pal]EFI[dE][αMeY]LIEGGPSSGAPPPSGE-NH2 [Example 614]
EC50 [1]: 724 nM | EC50 [2]: 6.36 nM | EC50 [3]: 0.251 nM | EC50 [4]: 0.597 nM | EC50 [5]: 0.0065 nM | EC50 [6]: 33.2 nM

Y[Aib]QGT[αMePhe(2-F)]TSD[4Pal]SI[αMeL]LD[Orn]K([AEEA-γGlu-C18 diacid])AQ[αMe4Pal]EFI[dE][αMeY]LIEGGPSSGEPPPSGS-NH2 [Example 644]
EC50 [1]: 626 nM | EC50 [2]: 5.91 nM | EC50 [3]: 0.309 nM | EC50 [4]: 0.601 nM | EC50 [5]: 0.00649 nM | EC50 [6]: 34.3 nM

Y[Aib]QGT[αMePhe(2-F)]TSD[4Pal]SI[αMeL]LD[Orn]K([AEEA-γGlu-C18 diacid])AQ[αMe4Pal][Orn]FI[dE][αMeY]LIEGGPSSGAPPPEGGGE-NH2 [Example 758]
EC50 [1]: 388 nM | EC50 [2]: 3.99 nM | EC50 [3]: 0.195 nM | EC50 [4]: 1.59 nM | EC50 [5]: 0.0212 nM | EC50 [6]: 31.3 nM

Y[Aib]QGT[αMePhe(2-F)]TSD[4Pal]SI[αMeL]LD[Orn]K([AEEA-γGlu-C18 diacid])AQ[αMe4Pal][Orn]FI[dE][αMeY]LIEGGPSSGDPPPEAE-NH2 [Example 728]
EC50 [1]: 298 nM | EC50 [2]: 2.45 nM | EC50 [3]: 0.277 nM | EC50 [4]: 1.45 nM | EC50 [5]: 0.0116 nM | EC50 [6]: 26.7 nM

Y[Aib]QGT[αMePhe(2-F)]TSD[4Pal]SI[αMeL]LD[Orn]K([AEEA-γGlu-C18 diacid])AQ[αMe4Pal][Orn]FI[dE][αMeY]LIEGGPSSGDPPPESE-NH2 [Example 729]
EC50 [1]: 276 nM | EC50 [2]: 2.11 nM | EC50 [3]: 0.288 nM | EC50 [4]: 1.43 nM | EC50 [5]: 0.0113 nM | EC50 [6]: 27 nM
